These results are taken from publication PMC3831620 (Naunyn-Schmiedeberg's archives of pharmacology, 2012).

The test system of data set [1] is any adenosine receptor subtype. The data set is described as follows: Radioligand competition binding, stated for any adenosine receptor subtype. More on the design: species or system human. The settings on record: for binding affinity in words: any adenosine receptor subtype, data not shown; for Ki: read-out: Ki at any of the adenosine receptor subtypes, any subtype.

For the next data set, the target named is T1, adenosine A3 receptor (Homo sapiens, UniProt P0DMS8).
T1 sequence (P0DMS8 1-318): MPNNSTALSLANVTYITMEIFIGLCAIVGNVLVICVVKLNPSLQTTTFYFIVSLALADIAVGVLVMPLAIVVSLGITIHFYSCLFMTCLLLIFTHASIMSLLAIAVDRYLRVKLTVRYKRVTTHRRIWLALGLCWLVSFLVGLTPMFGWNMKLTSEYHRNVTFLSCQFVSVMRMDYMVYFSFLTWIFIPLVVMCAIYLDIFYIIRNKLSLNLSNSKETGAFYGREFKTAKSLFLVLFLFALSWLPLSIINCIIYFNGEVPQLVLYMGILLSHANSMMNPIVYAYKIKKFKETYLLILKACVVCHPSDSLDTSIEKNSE
The data set is described as follows: Radioligand competition binding, [3H]HEMADO, membranes of transfected CHO cells.

The next data set deals with A2A adenosine receptor (Homo sapiens, UniProt P29274). Kind of data set: A2A receptor-mediated stimulation of adenylyl cyclase, CHO membranes. Type of data set: biochemical. The settings on record: for efficacy compared to the full agonist NECA: A2A stimulation of adenylyl cyclase, 1 μM NECA control; for agonist character at the A2A adenosine receptor: compared to NECA.

The next data set deals with T2, A2B receptor (Homo sapiens, UniProt P29275).
T2 sequence (P29275 1-332): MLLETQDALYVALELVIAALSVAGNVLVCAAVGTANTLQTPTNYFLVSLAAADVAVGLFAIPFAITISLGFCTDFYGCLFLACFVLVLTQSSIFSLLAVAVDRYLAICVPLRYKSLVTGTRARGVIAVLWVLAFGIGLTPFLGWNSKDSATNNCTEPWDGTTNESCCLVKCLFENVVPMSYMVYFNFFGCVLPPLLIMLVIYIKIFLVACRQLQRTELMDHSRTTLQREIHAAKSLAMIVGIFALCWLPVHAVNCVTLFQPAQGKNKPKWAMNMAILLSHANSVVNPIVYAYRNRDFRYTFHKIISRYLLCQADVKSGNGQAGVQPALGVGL
Kind of data set: A2B receptor-mediated adenylyl cyclase activity, CHO membranes. Type of data set: biochemical.

For a further data set, the target named is T3, adenosine A1 receptor (Homo sapiens, UniProt P30542).
T3 sequence (P30542 1-326): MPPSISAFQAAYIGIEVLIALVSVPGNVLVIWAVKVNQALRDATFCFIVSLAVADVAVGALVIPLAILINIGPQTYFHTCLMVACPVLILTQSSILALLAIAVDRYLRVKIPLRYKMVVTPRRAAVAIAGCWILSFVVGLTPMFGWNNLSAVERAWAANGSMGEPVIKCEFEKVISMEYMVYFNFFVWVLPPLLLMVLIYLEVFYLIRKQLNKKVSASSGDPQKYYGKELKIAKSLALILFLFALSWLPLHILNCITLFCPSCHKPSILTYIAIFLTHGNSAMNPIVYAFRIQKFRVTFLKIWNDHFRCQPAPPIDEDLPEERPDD
Kind of data set: Radioligand competition binding, [3H]CCPA, membranes of transfected CHO cells. The settings on record: Ki A1 (curve of Figure 2), single experiment.

In a further data set the target is adenosine A2A receptor (Homo sapiens, UniProt P29274). The data set is described as follows: Radioligand competition binding, [3H]NECA, membranes of transfected CHO cells. The settings on record: Ki A2A (curve of Figure 2B), single experiment.
The next data set has as its target T4, A1 receptor (Homo sapiens, UniProt P30542).
T4 sequence (P30542 1-326): T3 sequence (P30542 1-326)
Format: biochemical. The settings on record: for maximal inhibition of forskolin-stimulated adenylyl cyclase: compared with CCPA, n = 3.

Data set [2] has as its system adenosine receptor subtype A1. The settings on record: murine models; ref Lorenzen et al. 1998; cited from earlier work.
For data set [3] the following is noted: hematopoietic cell transplant; ref Beitinjaneh et al. 2011, Chun et al. 1986, Ding et al. 2008; cited from earlier work.

Where two headings read alike, the source gives them in different places.

Sequence of A2A adenosine receptor (P29274 whole entry): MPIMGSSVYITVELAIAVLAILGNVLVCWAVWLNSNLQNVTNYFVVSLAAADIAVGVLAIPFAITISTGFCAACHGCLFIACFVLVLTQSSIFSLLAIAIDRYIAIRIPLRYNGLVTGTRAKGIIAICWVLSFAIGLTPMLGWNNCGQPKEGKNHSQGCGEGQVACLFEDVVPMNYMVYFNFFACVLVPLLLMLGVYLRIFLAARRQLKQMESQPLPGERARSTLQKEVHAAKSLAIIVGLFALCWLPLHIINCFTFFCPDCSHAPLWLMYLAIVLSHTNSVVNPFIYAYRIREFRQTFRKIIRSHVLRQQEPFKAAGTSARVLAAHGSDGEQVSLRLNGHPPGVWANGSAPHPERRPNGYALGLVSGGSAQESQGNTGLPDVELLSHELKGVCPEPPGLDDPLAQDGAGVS
Sequence of adenosine A2A receptor (P29274 whole entry): as above

Turning to `Nc1ccn([C@@H]2O[C@H](CO)[C@@H](O)C2(F)F)c(=O)n1` [gemcitabine, 2′,2′-difluoro-2′-deoxycytidine], in [1], the “binding affinity in words” value was “no detectable affinity” and the Ki is greater than 100 µM.
For `Nc1nc(Cl)nc2c1ncn2[C@@H]1O[C@H](CO)[C@@H](O)[C@@H]1F` [clofarabine, 2-chloro-2′-arabino-fluoro-2′-deoxyadenosine], the Ki on adenosine A3 receptor (Ki A3 (curve of Figure 2B), [3H]HEMADO, single experiment) amounted to 8.28 µM; on adenosine A1 receptor, 0.248 µM; at adenosine A2A receptor it was 17.5 µM. The IC50 against A2A adenosine receptor turned out to be 9.8 µM; at A1 receptor (IC50 A1 agonist, adenylyl cyclase inhibition, values in text and abstract) it was 3.1 µM. Also, the “efficacy compared to the full agonist NECA” value at A2A adenosine receptor is “about 50%”. Moreover, the “agonist character at the A2A adenosine receptor” value on A2A adenosine receptor is listed as “partial agonists”. Moreover, at A2B receptor, the EC50 is greater than 100 µM. Moreover, at A1 receptor (10 μM, versus equivalent concentrations of fludarabine or cladribine), the “efficacy in decreasing adenylyl cyclase activity, comparison” value is reported as “more efficacious”. The “maximal inhibition of forskolin-stimulated adenylyl cyclase” value (from here on “maximal inhibition”) at A1 receptor is reported as “comparable to the full A1 receptor agonist CCPA”.
Turning to `Nc1ccn([C@@H]2O[C@H](CO)[C@@H](O)[C@@H]2O)c(=O)n1` [cytarabine, cytosine β-D-arabinofuranoside], in [1], the “binding affinity in words” value was “no detectable affinity” and the Ki was greater than 100 µM.
In the case of `Nc1nc(Cl)nc2c1ncn2[C@H]1C[C@H](O)[C@@H](CO)O1` [cladribine, 2-chloro-2′-deoxyadenosine], at adenosine A3 receptor, the Ki was greater than 100 µM. Moreover, at A2A adenosine receptor, it took 16.1 µM to reach half-maximal inhibition (IC50), the “efficacy compared to the full agonist NECA” value is given as roughly 40% and the “agonist character at the A2A adenosine receptor” value is listed as “partial agonists”. Also, the “agonist character at adenosine receptor subtype A1” value in data set [2] is given as “partial agonist”. The Ki on adenosine A1 receptor turned out to be 1.64 µM. Also, on A1 receptor, the IC50 was greater than 10 µM and the “maximal inhibition” value is “comparable to the full A1 receptor agonist CCPA”.
Regarding `Nc1nc(F)nc2c1ncn2[C@@H]1O[C@H](COP(=O)(O)O)[C@@H](O)[C@@H]1O` [Fludarabine monophosphate, 2-fluoroadenine-9-β-D-arabinofuranoside-5′phosphate], the “binding affinity in words” value in [1] was “no detectable affinity”.
In the case of `Nc1nc(F)nc2c1ncn2[C@@H]1O[C@H](CO)[C@@H](O)[C@@H]1O` [fludarabine, 2-fluoroadenine-9-β-D-arabinofuranoside], the Ki on adenosine A3 receptor was greater than 100 µM. The “patients experiencing mild to severe neurological toxicities” value in data set [3] was 2-10%. At adenosine A1 receptor, this molecule yielded a Ki of 2.24 µM. At A1 receptor, the IC50 was greater than 10 µM and the “maximal inhibition” value is on record as “comparable to the full A1 receptor agonist CCPA”.
